Source: patent US11643439B2, “Multi-target compound with anticoagulation and antiplatelet activity, preparation method therefor, and use thereof” (SHAANXI MICOT TECHNOLOGY LIMITED COMPANY, priority 2015, dated 2023)
Marks after values point to notes of the source that are not given here.

What was measured:
[1] = tested on: blood coagulation function; test: APTT in rats, intravenous maintenance administration; assay type: in vivo, rat
Procedure: 160 Rats were randomly divided into groups, 5 to 10 rats per group.
According to the body weight in kilograms of the rats, the first dose of a drug was dissolved in 2 mL of physiological saline for single bolus injection. The maintaining dose of drug was dissolved in 9 ml of physiological saline, and placed in a double-channel micro-injection pump, which was dripped off within 90 minutes at a dripping speed of 0.1 ml/min. The sham operation group was administered with the same volume of physiological saline.
The rats were fasted with free access to water overnight before the experiment.
The blood samples were taken before administration, administration for 60 minutes, and before termination of administration, respectively, to determine their activated partial thromboplastin time (APTT) and prothrombin time (PT). The blood samples were centrifuged at 3510 rpm for 8 minutes to obtain platelet poor plasma (PPP). Reagent reconstruction and preservation were performed according to the operation requirements of the kit. Immediately after each blood sample was placed into a test cup and then PT and APTT reagents were added, the test was started. After the test was completed, results were recorded.
5.1 Determination of blood coagulation function: The blood samples were taken 0 min before administration, administration for 60 minutes, and termination of administration, respectively, and then determined using a platelet-aggregation coagulation factor analyzer for the blood coagulation functions (PT. APTT) and ACT.

[2] = tested on: FeCl3-induced femoral artery thrombosis; test: FeCl3-induced femoral artery thrombosis in rabbits, single intravenous administration; assay type: in vivo, rabbit
Procedure: (§1) 1. Grouping and administration: 48 Rabbits were randomly divided into 6 groups, 8 rabbits per group. 1) Sham operation group (NS): Intravenous injection of the same volume of physiological saline; 2) positive control bivalirudin group (6 mg/kg); 3) positive control enoxaparin group (200 U/kg); 4) Low dose group of polypeptide 2 (3.0 mg/kg); 5) Medium dose group of polypeptide 2 (6.0 mg/kg); 6) High dose group of polypeptide 2 (12.0 mg/kg). Polypeptide 2 was administered by single intravenous administration. According to the body weight in kilograms of the rabbits, the sample was dissolved in 2 mL of physiological saline for single bolus injection. The sham operation group was administered with the same volume of physiological saline.
2.1 Surgery preparation of rabbits: Rabbit were sent to the laboratory for accommodation for one day, and then screened at first. Blood samples were taken from arteries within ears, which were subjected to blood routine analysis and APTT examinations, and the rabbits with a normal blood hemogram and APTT between 16 and 28 seconds were selected for experiments. The rabbits to be tested were fasted with free access to water in the night before the experiment. The rabbits were anesthetized with intravenous injection of 3% sodium pentobarbital solution at 1 ml/kg, fixed in the supine position, and then, the common carotid artery at one side, external jugular vein, femoral artery at one side, femoral vein, and forelimb vein at one side were isolated. The forelimb vein was subjected to intubation for administration; the left femoral vein was subjected to intubation for blood collection to determine the platelet aggregation rate: the femoral artery was used for the establishment of an arterial thrombosis model; the common carotid artery and external jugular vein were used for the establishment of an arterial and venous bypass thrombosis model.
2.3 Arterial thrombosis (AT) model: A small piece of filter paper (1 cm×1.5 cm) absorbed with 50% FeCl3 solution was applied onto the right femoral artery while administration, below which a small piece of a plastic film (2.5 cm×2.0 cm) was placed to protect surrounding tissues. After 10 minutes, the filter paper was removed, and then, the blood vessels and local tissues were rinsed with warm physiological saline, and the covered blood vessels were cut off. The thrombus which attached to the blood vessel walls was peeled off to be weighed on a tin foil for its wet weight, and then kept overnight at room temperature and weighed for its dry weight.
The femoral arteries in the […] and both sides in the rabbits were isolated and stabilized for 10 min before the administration was started. An AT model was established by covering the femoral artery with 50% FeCl3 filter paper while administration, and the filter paper was removed after covering for 15 minutes. An AVST model was established and it was taken out after […]. Observation was continued for 120 min after administration until the experiment was completed.
3.4 Thrombus weight: After the experiment was completed, the segment of the blood vessels in which there had been thrombus formation was cut off, weighed for the wet weight, and then kept overnight at room temperature and weighed for the dry weight. The thrombosis inhibitory rate was calculated with a calculation equation as follows: […]

[3] = tested on: blood coagulation function; test: APTT in rabbits, single intravenous administration; assay type: in vivo, rabbit
Procedure: as §1
3.2 Determination of blood coagulation function: Blood samples were taken and the blood function (PT, TT, APTT) was determined at 0 min before administration, at points of 5 min and 15 min after administration, using a platelet-aggregation coagulation factor analyzer. Blood samples were centrifuged at 3510 rpm for 8 min to obtain platelet poor plasma (PPP). Reagent reconstruction and preservation were performed according to the operation requirements of the kit. Immediately after each blood sample was placed into a test cup and then added with PT. TT and APTT reagents, the test was started. After the test was completed, results were recorded.

[4] = tested on: whole blood coagulation; test: ACT in rabbits, single intravenous administration; assay type: in vivo, rabbit
Procedure: as §1
3.3 Determination of ACT: At 0 min before administration and at points of administration for 5 min and 15 min, the whole blood was taken, to which kaolin was added, and placed in a water bath at 37° C. to record the whole blood coagulation time.

[5] = iv 0.041 + 0.125 (mg/kg + mg/kg/h)
[6] = iv 0.125 + 0.375 (mg/kg + mg/kg/h)
[7] = iv 0.25 + 0.75 (mg/kg + mg/kg/h)
[8] = iv 0.5 + 1.25 (mg/kg + mg/kg/h)
[9] = iv 1.5 + 3.75 (mg/kg + mg/kg/h)
[10] = single iv 3.0 mg/kg, Administration for 5 min
[11] = single iv 3.0 mg/kg, Administration for 15 min
[12] = single iv 3.0 mg/kg, Before administration
[13] = single iv 6.0 mg/kg, Administration for 5 min
[14] = single iv 6.0 mg/kg, Administration for 15 min
[15] = single iv 6.0 mg/kg, Before administration
[16] = single iv 12.0 mg/kg, Administration for 5 min
[17] = single iv 12.0 mg/kg, Administration for 15 min
[18] = single iv 12.0 mg/kg, Before administration

D-Phe Pro Arg Pro Gly Gly Gly Gly Asn Gly Asp Phe Glu Glu Ile Pro Glu Glu Tyr Leu Glu Ala Ala Ala Lys Cys Har Gly Asp Trp Pro Cys [Polypeptide 2]
APTT Before administration [1, 5]: 24.54 ± 5.09
APTT Fold of change [1, 5]: 1.65 ± 0.84
APTT administration for 60 minutes [1, 5]: 37.29 ± 10.59
APTT Before administration [1, 6]: 24.05 ± 5.44
APTT Fold of change [1, 6]: 1.94 ± 0.68
APTT administration for 60 minutes [1, 6]: 44.55 ± 12.74
APTT Before administration [1, 7]: 24.98 ± 5.11
APTT Fold of change [1, 7]: 2.22 ± 1.12
APTT administration for 60 minutes [1, 7]: 53.13 ± 22.57
APTT Before administration [1, 8]: 22.03 ± 4.70
APTT Fold of change [1, 8]: 2.49 ± 1.38
APTT administration for 60 minutes [1, 8]: 52.29 ± 25.87
APTT Before administration ([1]; iv 1 + 2.5 (mg/kg + mg/kg/h)): 23.98 ± 6.83
APTT Fold of change ([1]; iv 1 + 2.5 (mg/kg + mg/kg/h)): 5.01 ± 3.00
APTT administration for 60 minutes ([1]; iv 1 + 2.5 (mg/kg + mg/kg/h)): 108.52 ± 56.27
APTT Before administration [1, 9]: 23.94 ± 4.49
APTT Fold of change [1, 9]: 3.19 ± 2.02
APTT administration for 60 minutes [1, 9]: 74.62 ± 49.41
Thrombus dry weight ([2]; single iv 3.0 mg/kg): 1.4 ± 0.5 mg
Thrombus inhibitory rate ([2]; single iv 3.0 mg/kg): 52.99%
Thrombus dry weight ([2]; single iv 6.0 mg/kg): 1.2 ± 0.7 mg
Thrombus inhibitory rate ([2]; single iv 6.0 mg/kg): 56.90%
Thrombus dry weight ([2]; single iv 12.0 mg/kg): 1.1 ± 0.9 mg
Thrombus inhibitory rate ([2]; single iv 12.0 mg/kg): 60.82%
APTT fold of prolongation ([3]; single iv 3.0 mg/kg, Administration 5 min): 1.2 ± 0.2
APTT fold of prolongation ([3]; single iv 3.0 mg/kg, Administration 15 min): 1.0 ± 0.1
APTT [3, 10]: 24.4 ± 4.2*^¥ s
APTT [3, 11]: 20.0 ± 3.1 s
APTT [3, 12]: 20.6 ± 1.2 s
APTT fold of prolongation ([3]; single iv 6.0 mg/kg, Administration 5 min): 2.1 ± 0.6
APTT fold of prolongation ([3]; single iv 6.0 mg/kg, Administration 15 min): 1.5 ± 0.4
APTT [3, 13]: 50.5 ± 3.6*^& s
APTT [3, 14]: 34.9 ± 2.7*^& s
APTT [3, 15]: 24.1 ± 1.0 s
APTT fold of prolongation ([3]; single iv 12.0 mg/kg, Administration 5 min): 2.3 ± 0.6
APTT fold of prolongation ([3]; single iv 12.0 mg/kg, Administration 15 min): 1.6 ± 0.5
APTT [3, 16]: 54.4 ± 3.6*^& s
APTT [3, 17]: 37.0 ± 2.7*^& s
APTT [3, 18]: 23.3 ± 1.0 s
ACT [4, 10]: 352.5 ± 40.7^¥ s
ACT [4, 11]: 337.5 ± 27.8*^¥ s
ACT fold of prolongation ([4]; single iv 3.0 mg/kg, After administration 5 min): 1.0 ± 0.2
ACT fold of prolongation ([4]; single iv 3.0 mg/kg, After administration 15 min): 1.0 ± 0.1
ACT [4, 12]: 357.5 ± 27.7 s
ACT [4, 13]: 356.3 ± 35.3^¥ s
ACT [4, 14]: 324.4 ± 24.1*^¥ s
ACT fold of prolongation ([4]; single iv 6.0 mg/kg, After administration 5 min): 1.7 ± 0.7
ACT fold of prolongation ([4]; single iv 6.0 mg/kg, After administration 15 min): 1.6 ± 0.9
ACT [4, 15]: 232.5 ± 24.0 s
ACT [4, 16]: 505.6 ± 35.3*^¥&@ s
ACT [4, 17]: 418.1 ± 24.1*^¥ s
ACT fold of prolongation ([4]; single iv 12.0 mg/kg, After administration 5 min): 1.7 ± 0.6
ACT fold of prolongation ([4]; single iv 12.0 mg/kg, After administration 15 min): 1.4 ± 0.3
ACT [4, 18]: 315.0 ± 24.0 s
